Legend:
KRAS (G12D)/CRAF = KRAS (G12D)/CRAF (Homo sapiens (Human), UniProt P01116, G12D); assay: TR-FRET biochemical KRAS:CRAF protein:protein interaction assay, KRAS (G12D); assay type: binding; settings: GMPPNP loaded Biotin-KRAS (G12D), FLAG CRAF RBD; read-out: TR-Fret_PPI KRAS (G12D)/CRAF IC50
Method: (§1) The effect of test compounds on KRAS and CRAF protein: protein interaction (PPI) was measured by time resolved fluorescence resonance energy transfer (TR-FRET) Ras binding domain (RBD) assay, which uses a signal generated through fluorescent resonance energy transfer between a donor and an acceptor molecule when in close proximity to each other. Interference from buffer, media, etc. is reduced by dual-wavelength detection; the energy pulse from the excitation source is followed by a time delay, which allows interfering short-lived fluorescence to decay (Degorce et al. 2009).
(§2) The KRAS: CRAF PPI assay can be utilized to identify KRAS ‘ON’ state inhibitors, as the KRAS protein is loaded with GMPPNP (a non-hydrolyzable GTP analog), which represents the active KRAS ‘ON’ state. FLAG-tagged CRAF RBD binding to the GMPPNP loaded biotin-tagged KRAS will result in a fluorescence energy transfer from the donor (Tb-anti-FLAG, emission 620 nm) to the acceptor (SA-XL665, emission 665 nm). Disruption of KRAS and CRAF binding will reduce the TR-FRET signal.
(§3) Test compound was dissolved in DMSO to create a 1 mM stock solution. A 45 μL volume of stock solution was transferred to a 384well polypropylene plate. A 3fold, 10point dilution was performed by transferring 15 μL of test compound solution into 30 μL of DMSO.
(§4) Assay buffer A was prepared with […] Hepes, pH7.3, 0.002% Tween 20, 0.1% BSA, […] NaCl, 5 mM MgCl2, and 10 uM GMP-PNP. 4× KRAS Solution was prepared with 80 nM of Biotin-KRAS (G12D/V), GMPPNP loaded or Biotin-KRAS (WT), GMPPNP loaded protein in assay buffer A. 4× Raf RBD Solution was prepared with 400 nM FLAG CRAF RBD in assay buffer A. 2× Detection Mixture was prepared with 2 nM Tb-anti-FLAG antibody and 10 nM and 10 nM SA-XL665 in assay buffer A.
(§5) A volume of 100 nL of 100× test compound working solution or DMSO vehicle control solution was dispensed to each well (duplicate for each concentration) of a 384-well ProxiPlate Plus assay plate. A volume of 2.5 μL of 4× KRAS Solution was added to each well of the assay plate for a final concentration of 20 nM Biotin-KRAS (G12D/V),GMPPNP loaded or 20 nM Biotin-KRAS (WT), GMPPNP. For low control, add 2.5 μL of assay buffer (no KRAS protein). Pre-incubate assay plate for 30 minutes at room temperature. Following pre-incubation of test compound or DMSO with Biotin-KRAS (G12D/V),GMPPNP loaded or Biotin-KRAS (WT),GMPPNP, a volume of 2.5 μL of 4× FLAG cRAF RBD Solution was added to each well of the assay plate for a final concentration of 100 nM FLAG CRAF RBD. The assay plate was subjected to centrifuge at 1000 rpm for 1 minute and pre-incubate assay plate for 150 minutes at room temperature. Following the pre-incubation with FLAG cRAF RBD, a volume of 5 μl of 2× Detection Mixture was added to each well of the assay plate for a final concentration of 1 nM Tb-anti-FLAG and 5 nM SA-XL665. The assay plate was centrifuged at 1000 rpm for 1 minute and incubated for 90 minutes at room temperature. TR-FRET signal was measured on a BioTek Synergy Neo2 microplate reader (excitation at 340 nm, emission at 665 nn and 620 nm).
(§6) TR-FRET ratios were calculated by dividing the acceptor emission value (665 nm) by the donor emission value (620 nm) for each sample.
(§7) Percent inhibition was calculated by multiplying the normalized TR-FRET ratio by 100, where TR-FRET ratio^HIGH was the TR-FRET ratio obtained from wells with 1% DMSO and complete reaction mixture, TR-FRET ratio^LOW was the ratio obtained from wells with 1% DMSO and reaction mixture without KRAS protein and TR-FRET ratio^SAMPLE was the TR-FRET ratio from wells with test compound and complete reaction mixture. The IC50 values were calculated from normalized TR-FRET ratios with the Levenberg-Marquardt 4 parameter fitting procedure.
(§8) This assay quantifies the interaction of a KRAS mutant protein (e.g., G12V) with the CRAF Ras-binding domain (RBD). […]

KRAS (G12V)/CRAF = KRAS (G12V)/CRAF (Homo sapiens (Human), UniProt P01116, G12V); assay: TR-FRET biochemical KRAS:CRAF protein:protein interaction assay, KRAS (G12V); assay type: binding; settings: GMPPNP loaded Biotin-KRAS (G12V), FLAG CRAF RBD; read-out: TR-Fret_PPI KRAS (G12V)/CRAF IC50
Chain of KRAS (G12V)/CRAF (P01116-2 other isoform, or with tags, fused parts or gaps G12V): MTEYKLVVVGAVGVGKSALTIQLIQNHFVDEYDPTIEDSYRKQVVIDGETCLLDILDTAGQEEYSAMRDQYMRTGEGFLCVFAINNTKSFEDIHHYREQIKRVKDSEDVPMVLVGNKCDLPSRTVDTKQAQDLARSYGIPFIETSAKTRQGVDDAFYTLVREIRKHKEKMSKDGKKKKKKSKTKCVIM
Method: as §1, §2, §3, §4, §5, §6, §7, §8

[1] = test system: KRAS G12V dependent lung adenocarcinoma cell line, NCI-H441; assay: Cellular pERK (Thr202/Tyr204) FRET/HTRF assay; assay type: cell-based; settings: Homo sapiens
Summary of the method: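 Read-out is a wash-free FRET sandwich immunoassay for endogenous ERK1/2 phosphorylated on Thr202/Tyr204. Signal was measured in NCI-H441 lung adenocarcinoma cells after 1 hr compound exposure at 37 °C. IC50 values come from fitted concentration-response curves.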

[2] = NCI-H441, cellular pERK (Thr202/Tyr204) HTRF, NCI-H441 cells
[3] = NCI-H441, pERK HTRF, NCI-H441 cells (KRAS G12V)

Chain of KRAS (G12D)/CRAF (P01116-2 other isoform, or with tags, fused parts or gaps G12D): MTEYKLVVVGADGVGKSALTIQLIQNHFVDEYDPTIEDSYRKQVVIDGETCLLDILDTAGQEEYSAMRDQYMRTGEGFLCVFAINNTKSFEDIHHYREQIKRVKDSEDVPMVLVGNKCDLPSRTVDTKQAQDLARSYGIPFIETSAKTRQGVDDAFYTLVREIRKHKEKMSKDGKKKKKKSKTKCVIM

Structure (SMILES)	IC50 (KRAS (G12D)/CRAF)	IC50 (KRAS (G12V)/CRAF)	IC50 [1, 2]	IC50 [1, 3]
[2H]C([2H])(Oc1nc(N2CCOC[C@@H]3[C@@H](F)[C@@H]32)c2c(OC)nc(-c3cc(N)cc4ccc(F)c(C#C)c34)c(F)c2n1)[C@@]12CCCN1C[C@H](F)C2 [Example 223, 5-ethynyl-6-fluoro-4-(8-fluoro-4-((1R,7R,8R)-8-fluoro-5-oxa-2-azabicyclo[5.1.0]octan-2-yl)-2-(((2R,7aS)-2-fluorotetrahydro-1H-pyrrolizin-7a(5H)-yl)methoxy-d2)-5-methoxypyrido[4,3-d]pyrimidin-7-yl)naphthalen-2-amine]	3000 nM	3000 nM	500 to 10000 nM	–
[2H]C([2H])(Oc1nc(N2CCOC[C@@H]3[C@H](F)[C@@H]32)c2cnc(-c3cc(N)cc4ccc(F)c(C#C)c34)c(F)c2n1)[C@@]12CCCN1C[C@H](F)C2 [Example 224, 5-ethynyl-6-fluoro-4-(8-fluoro-4-((1R,7R,8S)-8-fluoro-5-oxa-2-azabicyclo[5.1.0]octan-2-yl)-2-(((2R,7aS)-2-fluorotetrahydro-1H-pyrrolizin-7a(5H)-yl)methoxy-d2)pyrido[4,3-d]pyrimidin-7-yl)naphthalen-2-amine]	> 3000 nM	> 3000 nM	500 to 10000 nM	–
[2H]C([2H])(Oc1nc(N2CCCC[C@@H]3[C@@H](Cl)[C@@H]32)c2cnc(-c3cc(N)cc4ccc(F)c(C#C)c34)c(F)c2n1)[C@@]12CCCN1C[C@H](F)C2 [Example 341, 4-(4-((1R,7S,8R)-8-chloro-2-azabicyclo[5.1.0]octan-2-yl)-8-fluoro-2-(((2R,7aS)-2-fluorotetrahydro-1H-pyrrolizin-7a(5H)-yl)methoxy-d2)pyrido[4,3-d]pyrimidin-7-yl)-5-ethynyl-6-fluoronaphthalen-2-amine]	1790 nM	≥ 10000 nM	500 to 10000 nM	–
[2H]C([2H])(Oc1nc(N2CCOC[C@@H]3[C@@H](Cl)[C@@H]32)c2cnc(-c3cc(N)cc4ccc(F)c(C#C)c34)c(F)c2n1)[C@@]12CCCN1[C@H](C)[C@H](F)C2 [Example 339, 4-(4-((1R,7R,8R)-8-chloro-5-oxa-2-azabicyclo[5.1.0]octan-2-yl)-8-fluoro-2-(((2R,3R,7aS)-2-fluoro-3-methyltetrahydro-1H-pyrrolizin-7a(5H)-yl)methoxy-d2)pyrido[4,3-d]pyrimidin-7-yl)-5-ethynyl-6-fluoronaphthalen-2-amine]	3000 nM	≥ 10000 nM	500 to 10000 nM	–
[2H]C([2H])(Oc1nc(N2CCOC[C@@H]3[C@@H](F)[C@@H]32)c2cnc(-c3cc(N)cc4ccc(F)c(C#C)c34)c(F)c2n1)[C@@]12CCCN1C[C@H](F)C2 [Example 221, 5-ethynyl-6-fluoro-4-(8-fluoro-4-((1R,7R,8R)-8-fluoro-5-oxa-2-azabicyclo[5.1.0]octan-2-yl)-2-(((2R,7aS)-2-fluorotetrahydro-1H-pyrrolizin-7a(5H)-yl)methoxy-d2)pyrido[4,3-d]pyrimidin-7-yl)naphthalen-2-amine]	> 3000 nM	> 3000 nM	500 to 10000 nM	–
[2H]C([2H])(Oc1nc(N2CCOC[C@H]3[C@H](Cl)[C@H]32)c2cnc(-c3cc(N)cc4ccc(F)c(C#C)c34)c(F)c2n1)[C@@]12CCCN1C[C@H](F)C2 [Example 248, 4-(4-((1S,7S,8S)-8-Chloro-5-oxa-2-azabicyclo[5.1.0]octan-2-yl)-8-fluoro-2-(((2R,7aS)-2-fluorotetrahydro-1H-pyrrolizin-7a(5H)-yl)methoxy-d2)pyrido[4,3-d]pyrimidin-7-yl)-5-ethynyl-6-fluoronaphthalen-2-amine]	8.25 nM	52.6 nM	< 50 nM	–
[2H]C([2H])(Oc1nc(N2CCCC[C@@H]3[C@H](Cl)[C@@H]32)c2cnc(-c3cc(N)cc4ccc(F)c(C#C)c34)c(F)c2n1)[C@@]12CCCN1C[C@H](F)C2 [Example 343, 4-(4-((1R,7S,8S)-8-chloro-2-azabicyclo[5.1.0]octan-2-yl)-8-fluoro-2-(((2R,7aS)-2-fluorotetrahydro-1H-pyrrolizin-7a(5H)-yl)methoxy-d2)pyrido[4,3-d]pyrimidin-7-yl)-5-ethynyl-6-fluoronaphthalen-2-amine]	3000 nM	≥ 10000 nM	500 to 10000 nM	–
[2H]C([2H])(Oc1nc(N2CCOC[C@H]3[C@H](Cl)[C@H]32)c2cnc(-c3cc(N)cc4ccc(F)c(C#C)c34)c(F)c2n1)[C@@]12CCCN1[C@H](C)[C@H](F)C2 [Example 340, 4-(4-((1S,7S,8S)-8-Chloro-5-oxa-2-azabicyclo[5.1.0]octan-2-yl)-8-fluoro-2-(((2R,3R,7aS)-2-fluoro-3-methyltetrahydro-1H-pyrrolizin-7a(5H)-yl)methoxy-d2)pyrido[4,3-d]pyrimidin-7-yl)-5-ethynyl-6-fluoronaphthalen-2-amine]	7.14 nM	50.1 nM	< 50 nM	–
[2H]C([2H])(Oc1nc(N2CCCC[C@H]3[C@@H](F)[C@H]32)c2cnc(-c3cc(N)cc4cc(F)c(F)c(C#C)c34)c(F)c2n1)[C@@]12CCCN1C[C@H](F)C2 [Example 13, 5-Ethynyl-6,7-difluoro-4-(8-fluoro-4-((1S,7R,8R)-8-fluoro-2-azabicyclo[5.1.0]octan-2-yl)-2-(((2R,7aS)-2-fluorotetrahydro-1H-pyrrolizin-7a(5H)-yl)methoxy-d2)pyrido[4,3-d]pyrimidin-7-yl)naphthalen-2-amine]	430 nM	2830 nM	–	50 to 500 nM
[2H]C([2H])(Oc1nc(N2CCCC[C@H]3[C@H](Cl)[C@H]32)c2cnc(-c3cc(N)cc4ccc(F)c(C#C)c34)c(F)c2n1)[C@@]12CCCN1C[C@H](F)C2 [Example 342, 4-(4-((1S,7R,8S)-8-chloro-2-azabicyclo[5.1.0]octan-2-yl)-8-fluoro-2-(((2R,7aS)-2-fluorotetrahydro-1H-pyrrolizin-7a(5H)-yl)methoxy-d2)pyrido[4,3-d]pyrimidin-7-yl)-5-ethynyl-6-fluoronaphthalen-2-amine]	9.04 nM	54.7 nM	< 50 nM	–
C#Cc1c(F)ccc2cc(N)cc(-c3ncc4c(N5CCCC[C@H]6C[C@H]65)nc(OC[C@@]56CCCN5C[C@H](F)C6)nc4c3F)c12 [Example 5, 4-(4-((1R,7S)-2-azabicyclo[5.1.0]octan-2-yl)-8-fluoro-2-(((2R,7aS)-2-fluorotetrahydro-1H-pyrrolizin-7a(5H)-yl)methoxy)pyrido[4,3-d]pyrimidin-7-yl)-5-ethynyl-6-fluoronaphthalen-2-amine]	24.2 nM	234 nM	–	< 50 nM
